The values that follow come from patent US11684676B2, “Site-specific antibody-drug conjugates by ADP-ribosyl cyclases” (University of Southern California, priority 2020, dated 2023).

This assay concerns CD38 C-fusion IgG. Nature of the assay: Inactivation of CD38 C-fusion IgG by 2′-Cl-araNAD+-N3. The format is biochemical, human. As to conditions: CD38 C-fusion IgG 2 nM, NGD+ 100 μM. An excerpt: The formation of cyclic GDP-ribose was monitored by a Synergy H1 plate reader (Biotek, VT) under the kinetic mode with excitation wavelength set at 300 nm and emission wavelength at 410 nm.

As for `[N-]=[N+]=NCCCNc1ncnc2c1ncn2[C@@H]1O[C@H](COP(=O)(O)OP(=O)([O-])OC[C@H]2O[C@@H]([n+]3cccc(C(N)=O)c3)[C@@H](Cl)[C@@H]2O)[C@@H](O)[C@H]1O` [2′-Cl-araNAD^+-N3, 1-((2R,3S,4R,5R)-5-((((((((2R,3S,4R,5R)-5-(6-((3-azidopropyl)amino)-9H-purin-9-yl)-3,4-dihydroxytetrahydrofuran-2-yl)methoxy)(hydroxy)phosphoryl)oxy)oxidophosphoryl)oxy)methyl)-3-chloro-4-hydroxytetrahydrofuran-2-yl)-3-carbamoylpyridin-1-ium], the maximal inactivation rate constant (kinact) came to 0.0039 ± 0.0007 s⁻¹.

The kinact is the maximal first-order rate at which the target is inactivated.
